Test results as given in ChEMBL document CHEMBL3044887, “The antifungal activity of widdrol and its biotransformation by Colletotrichum gloeosporioides (penz.) Penz. & Sacc. and Botrytis cinerea Pers.: Fr” (2006).
Active and inactive are the calls of the source. The rule behind the calls is not given here.

Columns and labels:
Botrytis cinerea [1] = assay: Antifungal activity against Botryotinia fuckeliana 2100 assessed as inhibition of mycelial growth at 100 ppm measured after 6 days; assay type: functional
Botrytis cinerea [2] = assay: Antifungal activity against Botryotinia fuckeliana 2100 assessed as inhibition of mycelial growth at 200 ppm measured after 6 days; assay type: functional; conditions: Botrytis cinerea, 2100, 144 h; read-out: GI
[3] = system: Colletotrichum gloeosporioides; assay: Antifungal activity against Colletotrichum gloeosporioides 20122 assessed as inhibition of mycelial growth at => 100 ppm measured after 24 to 144 hr; assay type: functional, organism-based

Structure (SMILES)	growth inhibition (GI) (Botrytis cinerea [1])	other results
CC1(C)C2=CC[C@@](C)(O)CC[C@]2(C)CC[C@H]1O	inactive	
CC1(C)CC[C@@H]2O[C@]13[C@H](O)C[C@@](C)(O)CC[C@]23C	inactive	
C[C@@]1(O)CC=C2[C@@](C)(CCC[C@@]2(C)CO)CC1	inactive	
CC1(C)C2=CC[C@@](C)(O)CC[C@]2(C)CC[C@@H]1O	inactive	
CC1(C)CCC[C@@]2(C)CC[C@](C)(O)CC=C12 [WIDDROL]		inhibition of growth at 200 ppm (Botrytis cinerea [2]): 70.7%; inhibition of growth at 100 ppm (Botrytis cinerea [1]; Botrytis cinerea, 2100, 144 h, read-out: GI): 60%; growth inhibition (GI) [3]: inactive
CC1(C)C(=O)CC[C@@]2(C)CC[C@](C)(O)CC=C12	inactive	
